From US7915270B2, “Oxazole ketones as modulators of fatty acid amide hydrolase” (The Scripps Research Institute, priority 2006, dated 2011)
pIC50, pKi: −log10 of the molar value.

Tests used:
neuropathic pain = conditions: rats; WO 02/087569; cited from earlier work
[1] = tested on: acute thermal nociception; conditions: rats; WO 02/087569; cited from earlier work
[2] = Solubility determination in water; format: physicochemical; conditions: thermodynamic from solid; in water at 5, 1 and 0.1 mg/mL; pH of resulting solutions 7-8.5
Procedure: Physical Chemical Properties
Solubility determinations were made by mixing the test compound in water at 5 mg/mL, 1 mg/mL, and 0.1 mg/mL concentrations. The pH of the resulting solutions was 7-8.5.

[3] = Pharmacokinetic testing, intravenous bolus in rats; format: in vivo; conditions: rat, plasma, 2 mg/kg, male Sprague Dawley rats, 1 mg/mL in 2 mL/kg
Procedure: For each test compound, two male Sprague Dawley Rats (Charles River Laboratories; approx. 300 g body weight) were used. Animals were individually housed, provided food and water ad libitum, and were maintained on a 12 h light and dark cycle. Animals received from the vendor were surgically cannulated by the vendor with right jugular vein and left carotid artery catheters. Animals were acclimatized for at least 5 days after receipt from the vendor prior to investigations.
Animals received a bolus intravenous dose of the test compound at a dose of 1 mg/mL in a volume of 2 mL/kg via the right jugular vein catheter. The intravenous dosing solution was prepared in 55% pharmasolve, 20% cremophor, and […] physiological saline, or 100% saline adjusted to pH 8.0.
Following intravenous administration, blood was collected (sampled 0.35 mL per time point from the left carotid artery catheter) at 0.083, 0.25, 0.5, 1, 2, 4, and 6 h post-dose. Blood was collected into tubes containing EDTA and stored at 4° C. for not more than 2 h. The samples were centrifuged at 10,000 rpm in a micro-centrifuge for 5 min to obtain a plasma fraction. The plasma was stored at between −20 and −80° C. until processed for analysis. These samples were analyzed by LC-MS/MS to determine the plasma level of the compound.
Plasma level vs. time plots were created and WinNonlin (Pharsight Corp.) was used to analyze the data. A non-compartmental pharmacokinetic model was used to determine the pharmacokinetic parameters, including clearance, volume of distribution (Vd), and half-life (t1/2).

Rat FAAH = target: T1, Rat FAAH (Rattus norvegicus, UniProt P97612); assay: Assay Method 2: FAAH assay, 3H-anandamide hydrolysis in cell homogenate (SK-N-MC cells transfected with rat FAAH); format: biochemical; conditions: 3H-AEA 80 nM, rt 1 h, pH 9
T1 construct: expressed in transfected cells
T1 sequence (P97612 1-579): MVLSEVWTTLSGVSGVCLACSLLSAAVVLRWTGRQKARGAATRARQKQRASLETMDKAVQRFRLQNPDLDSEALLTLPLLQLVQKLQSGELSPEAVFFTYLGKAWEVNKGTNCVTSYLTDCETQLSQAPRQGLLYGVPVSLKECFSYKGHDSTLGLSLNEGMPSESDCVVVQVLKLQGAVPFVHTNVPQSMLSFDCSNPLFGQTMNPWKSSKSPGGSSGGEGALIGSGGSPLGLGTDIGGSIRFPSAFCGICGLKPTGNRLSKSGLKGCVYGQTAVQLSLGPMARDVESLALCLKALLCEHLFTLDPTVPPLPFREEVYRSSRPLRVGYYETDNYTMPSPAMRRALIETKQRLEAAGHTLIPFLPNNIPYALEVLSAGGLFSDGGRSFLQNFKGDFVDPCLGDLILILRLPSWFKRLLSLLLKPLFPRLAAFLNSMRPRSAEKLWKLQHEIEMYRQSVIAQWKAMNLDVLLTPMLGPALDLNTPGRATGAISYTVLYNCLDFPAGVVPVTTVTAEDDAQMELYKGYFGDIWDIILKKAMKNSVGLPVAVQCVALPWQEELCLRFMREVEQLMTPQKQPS
Procedure: A. Transfection of Cells with Rat FAAH
(§1) A 10-cm tissue culture dish with a confluent monolayer of SK—N-MC cells was split 2 days (d) prior to transfection. Using sterile technique, the media was removed and the cells were detached from the dish by the addition of trypsin. One fifth of the cells were then placed onto a new 10-cm dish. Cells were grown in a 37° C. incubator with 5% CO2 in Minimal Essential Media Eagle with 10% Fetal Bovine Serum. After 2 d, cells were approximately 80% confluent. These cells were removed from the dish with trypsin and pelleted in a clinical centrifuge. The pellet was re-suspended in 400 μL complete media and transferred to an electroporation cuvette with a 0.4 cm gap between the electrodes. Supercoiled rat FAAH cDNA (1 μg) was added to the cells and mixed. The voltage for the electroporation was set at 0.25 kV, and the capacitance was set at 960 μF. After electroporation, the cells were diluted into complete media (10 mL) and plated onto four 10-cm dishes. Because of the variability in the efficiency of electroporation, four different concentrations of cells were plated. The ratios used were 1:20, 1:10, and 1:5, with the remainder of the cells being added to the fourth dish. The cells were allowed to recover for 24 h before adding the selection media (complete media with 600 μg/mL G418). After 10 d, dishes were analyzed for surviving colonies of cells. Dishes with well-isolated colonies were used. Cells from individual colonies were isolated and tested.
The assay mixture consisted of 50 μL of the cell homogenate, 10 μL of the test compound, and 40 μL of anandamide [1-^3H-ethanolamine] (^3H-AEA, Perkin-Elmer, 10.3 Ci/mmol), which was added last, for a final tracer concentration of 80 nM. The reaction mixture was incubated at rt for 1 h. During the incubation, 96-well Multiscreen filter plates (catalog number MAFCNOB50; Millipore, Bedford, Mass., USA) were loaded with 25 μL of activated charcoal (Multiscreen column loader, catalog number MACL09625, Millipore) and washed once with 100 μL of MeOH. […] After the 1 h incubation, 60 μL of the reaction mixture were transferred to the charcoal plates, which were then assembled on top of the DYNEX plates using Centrifuge Alignment Frames (catalog number MACF09604, Millipore). The unbound labeled ethanolamine was centrifuged through to the bottom plate (5 min at 2000 rpm), which was preloaded with the scintillant, as described above. The plates were sealed and left at rt for 1 h before counting on a Hewlett Packard TopCount.

FAAH [4] = target: T2, FAAH (Homo sapiens, UniProt O00519); assay: Assay Method 1B: FAAH assay, 3H-anandamide hydrolysis in cell homogenate (T84 or SK-N-MC cells transfected with human FAAH); format: biochemical; set-up: expressed in transfected cells; conditions: 3H-AEA 80 nM, rt 1 h, pH 9
T2 sequence (O00519 1-579): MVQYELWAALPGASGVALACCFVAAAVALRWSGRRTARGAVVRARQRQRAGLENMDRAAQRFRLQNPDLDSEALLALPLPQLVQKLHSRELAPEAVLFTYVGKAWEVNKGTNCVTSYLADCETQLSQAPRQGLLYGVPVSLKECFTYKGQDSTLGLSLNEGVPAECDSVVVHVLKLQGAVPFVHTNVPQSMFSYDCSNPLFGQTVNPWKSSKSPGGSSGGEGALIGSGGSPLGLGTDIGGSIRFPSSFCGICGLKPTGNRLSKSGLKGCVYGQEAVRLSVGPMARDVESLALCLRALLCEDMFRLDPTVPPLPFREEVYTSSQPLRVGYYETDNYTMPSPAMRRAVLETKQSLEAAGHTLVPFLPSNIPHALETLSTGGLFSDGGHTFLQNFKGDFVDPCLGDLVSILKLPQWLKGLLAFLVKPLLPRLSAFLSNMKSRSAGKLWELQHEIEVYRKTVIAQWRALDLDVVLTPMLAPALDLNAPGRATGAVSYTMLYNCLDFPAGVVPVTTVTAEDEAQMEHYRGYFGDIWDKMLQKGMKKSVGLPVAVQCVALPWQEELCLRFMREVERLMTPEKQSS
Procedure: as §1, with “Transfection of Cells with Human FAAH A 10-cm” for “A 10-cm”, “electrodes. Supercoiled human FAAH cDNA” for “electrodes. Supercoiled rat FAAH cDNA”, “and tested. […] The reaction mixture was incubated at rt for 1 h. During the incubation, 96-well Multiscreen filter plates (catalog number MAFCNOB50; Millipore, Bedford, Mass., USA) were loaded with 25 μL of activated charcoal (Multiscreen column loader, catalog number MACL09625, Millipore) and washed once with 100 μL of MeOH. Also during the incubation, 96-well DYNEX MicroLite plates (catalog number NL510410) were loaded with 100 μL of MicroScint40 (catalog number 6013641, Packard Bioscience, Meriden, Conn., USA). After the 1 h incubation, 60 μL of the reaction mixture were transferred to the charcoal plates, which were then assembled on top of the DYNEX plates using Centrifuge Alignment Frames (catalog number MACF09604, Millipore). The unbound labeled ethanolamine was centrifuged through to the bottom plate (5 min at 2000 rpm), which was preloaded with the scintillant, as described above. The plates were sealed and left at rt for 1 h before counting on a Hewlett Packard TopCount.” for “and tested.”

FAAH [5] = target: T3, FAAH (Rattus norvegicus, UniProt P97612); assay: Assay Method 1A: FAAH enzyme assay, 14C-oleamide hydrolysis, solubilized liver plasma membrane extract;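 further: ki obtained by Dixon analysis, taking the x-intercept of inhibitor concentration versus reciprocal rate plots at fixed substrate level and correcting for substrate concentration relative to Km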
T3 sequence (P97612 1-579): T1 sequence (P97612 1-579)
Procedure: Linear least squares fits were used for all reaction progress curves and R^2 values were consistently >0.97. […] Ki values were determined by the Dixon Method (x-intercepts of weighted linear fits of [I] versus 1/rate plots at constant substrate concentration, which were converted to Ki values using the formula Ki=−xint/[1+[S]/Km]).

thermal nociception [6] = conditions: rats; WO 04/033652; cited from earlier work
FAAH [7] = target: T2, FAAH; conditions: reported; cited from earlier work
thermal nociception [8] = conditions: rats; WO 04/033652; cited from earlier work; remark: listed apart in the source

Row | pIC50 (Rat FAAH) | pIC50 (FAAH [4]) | pKi (FAAH [5]) | SMILES | other results
1 | – | – | – | Cc1nc(-c2ccccc2)c(-c2ccccc2)n1CCCCCCNC(=O)Oc1ccccc1F [BMS-1] | analgesic effect in the Chung spinal nerve ligation model (neuropathic pain): analgesic effect; analgesic effect in the Hargraves test [1]: analgesic effect
2 | – | – | – | O=C(CCCCCCc1ccccc1)c1ncc(-c2ccco2)o1 [Comp. Ex. 2, 1-(5-Furan-2-yl-oxazol-2-yl)-7-phenyl-heptan-1-one, reference compound] | solubility [2]: < 100 µg/mL; Vd [3]: 22.9 L/kg; clearance [3]: 63.3 mL/min/kg; half-life [3]: 3.49 h
3 | 8.70 | 9.10 | 7.82 | O=C(O)c1ccc(-c2cnc(C(=O)CCCCCCc3ccccc3)o2)o1 [Example 56, 5-(2-(7-Phenylheptanoyl)oxazol-5-yl)furan-2-carboxylic acid] | solubility [2]: > 5000 µg/mL
4 | – | – | – | O=C(CCCCCCc1ccccc1)c1ncc(-c2ccccn2)o1 [Comp. Ex. 1, 7-Phenyl-1-(5-pyridin-2-yl-oxazol-2-yl)-heptan-1-one, reference compound] | solubility [2]: < 100 µg/mL; Vd [3]: 27.3 L/kg; clearance [3]: 98.3 mL/min/kg; half-life [3]: 3.23 h
5 | – | – | – | O=C(CCCCCCc1ccccc1)c1ncc(-c2ccccn2)o1 [OL-135] | analgesic activity in the hot plate test (thermal nociception [6]): analgesic activity; inhibition of FAAH (FAAH [7]): potent inhibitor; analgesic activity in the tail emersion test (thermal nociception [8]): analgesic activity
6 | 8.10 | 8.70 | 8.52 | NS(=O)(=O)c1ccc(-c2cnc(C(=O)CCCCCCc3ccccc3)o2)s1 [Example 59, 5-(2-(7-Phenylheptanoyl)oxazol-5-yl)thiophene-2-sulfonamide] | –
7 | 7.96 | 8.40 | 8.30 | O=C(O)c1cccc(-c2cnc(C(=O)CCCCCCc3ccccc3)o2)c1 [Example 25, 3-(2-(7-Phenylheptanoyl)oxazol-5-yl)benzoic acid] | –
8 | 5.66 | 6.59 | 7.22 | COC(=O)c1ccccc1-c1cnc(C(=O)CCCCCCc2ccccc2)o1 [Example 22, Methyl 2-(2-(7-phenylheptanoyl)oxazol-5-yl)benzoate] | –
9 | 6.00 | 7.62 | 7.40 | COC(=O)c1ccc(-c2cnc(C(=O)CCCCCCc3ccccc3)o2)cc1 [Example 24, Methyl 4-(2-(7-phenylheptanoyl)oxazol-5-yl)benzoate] | –
10 | 6.30 | 7.30 | 7.55 | O=C(CCCCCCc1ccccc1)c1ncc(-c2cccc([N+](=O)[O-])c2)o1 [Example 2, 1-(5-(3-Nitrophenyl)oxazol-2-yl)-7-phenylheptan-1-one] | –
11 | 8.05 | 9.00 | 7.96 | O=C(CCCCCCc1ccccc1)c1ncc(-c2ccc(C(=O)O)s2)o1 [Example 58, 5-(2-(7-Phenylheptanoyl)oxazol-5-yl)thiophene-2-carboxylic acid] | –
12 | 5.46 | 6.94 | 6.77 | O=C(CCCCCCc1ccccc1)c1ncc(-c2ccccc2O)o1 [Example 30, 1-(5-(2-Hydroxyphenyl)oxazol-2-yl)-7-phenylheptan-1-one] | –
13 | 6.54 | 7.77 | 7.72 | Nc1cccc(-c2cnc(C(=O)CCCCCCc3ccccc3)o2)c1 [Example 28, 1-(5-(3-Aminophenyl)oxazol-2-yl)-7-phenylheptan-1-one] | –
